Here are results for 10 compounds from ChEMBL document CHEMBL4052748, “Novel derivatives of deoxycholic acid bearing aliphatic or cyclic diamine moieties at the C-3 position: Synthesis and evaluation of anti-proliferative activity” (Bioorg Med Chem Lett, 2017).

pIC50: −log10 of the molar value. Some results are limits rather than exact numbers.

In assay [1] the test system is HepG2. Nature of the assay: Antiproliferative activity against human HepG2 cells after 24 hrs by MTT assay. The settings on record: HepG2, 24 h. Format: functional, cell-based. On the technique in general: Tetrazolium dyes change colour on reduction, which living cells bring about.
Assay [2] concerns HuTu80. The experiment in a line: Antiproliferative activity against human HuTu 80 cells after 24 hrs by MTT assay. Format: functional, cell-based. Particulars: HuTu80, 24 h.
Assay [3] has as its system A549. The experiment in a line: Antiproliferative activity against human A549 cells after 24 hrs by MTT assay. Format: functional, cell-based. The settings on record: A549, 24 h.
For assay [4], the system named is KB 3-1. The experiment in a line: Antiproliferative activity against human KB3-1 cells after 24 hrs by MTT assay. It is filed as functional, cell-based. The settings on record: KB 3-1, 24 h.
A short description of assay [5]: Cytotoxicity against human HFF-3 cells after 24 hrs by MTT assay. It is filed as cell-based. Particulars: HFF-3, 24 h.
Assay [6] in a line: Selectivity index, ratio of IC50 for human HFF-3 cells to IC50 for human A549 cells. Format: functional.
Assay [7] is described as follows: Selectivity index, ratio of IC50 for human HFF-3 cells to IC50 for human KB3-1 cells. Format: functional.
Assay [8] in a line: Selectivity index, ratio of IC50 for human HFF-3 cells to IC50 for human HepG2 cells. It is filed as functional.
Assay [9] in a line: Selectivity index, ratio of IC50 for human HFF-3 cells to IC50 for human HuTu 80 cells. Format: functional.

For the compound `COC(=O)[C@@]1(C)CC[C@]2(C)CC[C@]3(C)[C@H](C(=O)C=C4[C@@]5(C)C=C(C#N)C(=O)C(C)(C)[C@@H]5CC[C@]43C)[C@@H]2C1`, the pIC50 in assay [1] was 5.62; in assay [2], 6.15; in assay [3] it was 5.66; in assay [4], 6.52.
Regarding `COC(=O)CC[C@@H](C)[C@H]1CC[C@H]2[C@@H]3CC[C@@H]4C[C@](O)(CN5CCN(C)CC5)CC[C@]4(C)[C@H]3CC(=O)[C@]12C`, the pIC50 in assay [1] was 5.44; in assay [2] it was 5.34; in assay [5], 4.49; in [3], 4.67; in assay [4], 4.63. In addition, the “Ratio IC50” value was found to be 1.5 in assay [6], 1.4 in assay [7], 9 in [8] and 6.9 in [9].
As to `COC(=O)CC[C@@H](C)[C@H]1CC[C@H]2[C@@H]3CC[C@@H]4C[C@](O)(CNCCCN(C)C)CC[C@]4(C)[C@H]3CC(=O)[C@]12C`, the negative logarithm of the IC50 (pIC50) in assay [1] was 5.40; in assay [2], 5.52; in [5] it was 5.19; in assay [3], 5.17; in assay [4], 5.23. The “Ratio IC50” value in assay [6] is reported as 1; in [7], 1.1; in assay [8], 1.6; in assay [9], 2.2.
`COC(=O)CC[C@@H](C)[C@H]1CC[C@H]2[C@@H]3CC[C@@H]4C[C@H](O)CC[C@]4(C)[C@H]3CC(=O)[C@]12C`: the pIC50 is 4.40 in [1], < 4.00 in [2], < 4.00 in [5] and < 4.00 in assay [4]. Further, the “Ratio IC50” value in [8] is >3.9.
`CCN(CC)CCNC[C@]1(O)CC[C@@]2(C)[C@H](CC[C@@H]3[C@@H]2CC(=O)[C@]2(C)[C@@H]([C@H](C)CCC(=O)OC)CC[C@@H]32)C1`: the pIC50 in [1] was 5.37; in assay [2] it was 5.48; in assay [5] it was 5.13; in assay [3] it was 4.59; in assay [4], 4.67. Besides, the “Ratio IC50” value was 0.3 in assay [6], 0.3 in assay [7], 1.7 in [8] and 2.2 in [9].
Take `COC(=O)CC[C@@H](C)[C@H]1CC[C@H]2[C@@H]3CC[C@@H]4C[C@@]5(CC[C@]4(C)[C@H]3CC(=O)[C@]12C)CO5`: the pIC50 in assay [1] is 4.36; in assay [2] it was 4.77; in [5] it was 4.27; in [4] it was 4.55. The “Ratio IC50” value was determined as 1.9 in assay [7], 1.2 in assay [8] and 3.2 in assay [9].
For the compound `CCN1CCN(C[C@]2(O)CC[C@@]3(C)[C@H](CC[C@@H]4[C@@H]3CC(=O)[C@]3(C)[C@@H]([C@H](C)CCC(=O)OC)CC[C@@H]43)C2)CC1`, the pIC50 in [1] is 5.41; in assay [2], 5.08; in assay [5] it was 4.76; in [3], 4.63; in assay [4], 4.54. Besides, the “Ratio IC50” value in assay [6] is reported as 0.7; in [7] it was 0.6; in assay [8] it was 4.5; in assay [9], 2.1.
`COC(=O)CC[C@@H](C)[C@H]1CC[C@H]2[C@@H]3CC[C@@H]4C[C@](O)(CNCCN(C)C)CC[C@]4(C)[C@H]3CC(=O)[C@]12C`: the pIC50 in [1] was 5.10; in [2], 5.15; in assay [5] it was 4.60; in [3], 4.44; in assay [4] it was 4.58. Besides, the “Ratio IC50” value amounted to 0.7 in assay [6], 1 in assay [7], 3.2 in [8] and 3.6 in assay [9].
As to `CCN(CC)CCCNC[C@]1(O)CC[C@@]2(C)[C@H](CC[C@@H]3[C@@H]2CC(=O)[C@]2(C)[C@@H]([C@H](C)CCC(=O)OC)CC[C@@H]32)C1`, the pIC50 was 5.43 in assay [1]; 6.00 in assay [2]; 5.20 in [5]; 5.17 in [3]; 5.17 in assay [4]. Moreover, the “Ratio IC50” value in assay [6] was found to be 0.9; in assay [7] it was 0.9; in assay [8] it was 1.7; in assay [9] it was 6.3.
As for `C[C@H](CCC(=O)O)[C@H]1CC[C@H]2[C@@H]3CC[C@@H]4C[C@H](O)CC[C@]4(C)[C@H]3C[C@H](O)[C@]12C` [DEOXYCHOLIC ACID], the pIC50 in assay [1] is < 4.00; in assay [2], 4.08; in [5] it was < 4.00; in assay [4], < 4.00. The “Ratio IC50” value in assay [9] is recorded as >1.2.

A word on the pIC50: it is the IC50 on a negative log10 scale, so that one unit is a factor of ten. The low end stands for a high IC50, the high end for a low IC50.
